ChEMBL document CHEMBL5370610, “Urotensin II Receptor Modulation with 1,3,4-Benzotriazepin-2-one Tetrapeptide Mimics” (J Med Chem, 2023)
The source made the active and inactive calls. The calls are words filed in the database; no cut-off is given here.

Tests used:
HEK293 [1] = assay: Agonist activity at RLucII-tagged Galpha-13 (unknown origin) expressed in HEK293 cells co-expressing human UT/GFP10-tagged G-gamma assessed as activation of Galpha-13 at 10^-5 M by BRET assay relative to hUII; assay type: cell-based; conditions: filed as agonist, dose 1.0 10^-5M
Aorta [2] = assay: Ex vivo modulatory effect on URP-induced contractile activity in Sprague-Dawley rat aortic ring (reference value: 8.06 +/- 0.27); assay type: functional, tissue-based
[3] = Agonist activity at RLucII-tagged Galpha-i (unknown origin) expressed in HEK293 cells co-expressing human UT/GFP10-tagged G-gamma assessed as activation of Galpha-i by BRET assay; assay type: cell-based
Aorta [4] = assay: Ex vivo modulatory effect on URP-induced contractile activity in Sprague-Dawley rat aortic ring at 10^-6 M pretreated for 30 mins followed by URP addition (reference value: 100 +/- 8 %); assay type: functional; conditions: 0.5 h, dose 1 10^-6M
[5] = molecular target: T1, Guanine nucleotide-binding protein G(q) subunit alpha (Homo sapiens) (UniProt P50148); assay: Agonist activity at RLucII-tagged Galpha-q (unknown origin) expressed in HEK293 cells co-expressing human UT/GFP10-tagged G-gamma assessed as activation of Galpha-q at 10^-5 M by BRET assay relative to hUII; assay type: cell-based; conditions: dose 1.0 10^-5M
T1 sequence (whole entry): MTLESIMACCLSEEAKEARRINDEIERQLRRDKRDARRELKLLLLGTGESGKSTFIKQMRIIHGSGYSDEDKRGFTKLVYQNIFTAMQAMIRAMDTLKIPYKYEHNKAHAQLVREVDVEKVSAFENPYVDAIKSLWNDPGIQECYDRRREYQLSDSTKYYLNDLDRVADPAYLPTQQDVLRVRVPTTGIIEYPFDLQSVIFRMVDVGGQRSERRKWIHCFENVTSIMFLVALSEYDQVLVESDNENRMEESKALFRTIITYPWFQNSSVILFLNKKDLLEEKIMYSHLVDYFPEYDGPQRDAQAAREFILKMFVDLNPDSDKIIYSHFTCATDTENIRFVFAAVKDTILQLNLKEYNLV

Beta-arrestin-1 [6] = molecular target: T2, Beta-arrestin-1 (Homo sapiens, UniProt P49407); assay: Agonist activity at RLucII/GFP10-tagged beta-arrestin-1 (unknown origin) recruitment expressed in HEK293 cells co-expressing human UT assessed as beta-arrestin recruitment by BRET assay; assay type: cell-based
Aorta [7] = assay: Ex vivo modulatory effect on hUII-induced contractile activity in Sprague-Dawley rat aortic ring (reference value: 8.37 +/- 0.08); assay type: functional, tissue-based
[8] = molecular target: T3, Guanine nucleotide-binding protein G(q) subunit alpha (Homo sapiens, UniProt P50148); assay: Agonist activity at RLucII-tagged Galpha-q (unknown origin) expressed in HEK293 cells co-expressing human UT/GFP10-tagged G-gamma assessed as activation of Galpha-q by BRET assay; assay type: cell-based
T3 sequence (P50148 whole entry): T1 sequence (whole entry)

Beta-arrestin-1 [9] = molecular target: T2, Beta-arrestin-1; assay: Agonist activity at RLucII/GFP10-tagged beta-arrestin-1 (unknown origin) expressed in HEK293 cells co-expressing human UT assessed as beta-arrestin recruitment at 10^-5 M by BRET assay relative to hUII; assay type: cell-based; conditions: filed as agonist, dose 1.0 10^-5M
Aorta [10] = assay: Ex vivo modulatory effect on hUII-induced contractile activity in Sprague-Dawley rat aortic ring at 10^-6 M pretreated for 30 mins followed by hUII addition (reference value: 100 +/- 9 %); assay type: functional; conditions: 0.5 h, dose 1 10^-6M
[11] = Agonist activity at RLucII-tagged Galpha-13 (unknown origin) expressed in HEK293 cells co-expressing human UT/GFP10-tagged G-gamma assessed as activation of Galpha-13 by BRET assay; assay type: cell-based
HEK293 [12] = assay: Agonist activity at RLucII-tagged Galpha-i (unknown origin) expressed in HEK293 cells co-expressing human UT/GFP10-tagged G-gamma assessed as activation of Galpha-i at 10^-5 M by BRET assay relative to hUII; assay type: cell-based; conditions: dose 1.0 10^-5M
HEK293 [13] = assay: Antagonist activity at URP-activated RLucII-tagged Galpha-i (unknown origin) expressed in HEK293 cells co-expressing human UT/GFP10-tagged G-gamma at 10^-6 M by BRET assay (reference value: 100 +/- 7 %); assay type: cell-based; conditions: filed as antagonist, dose 1.0 10^-6M
HEK293 [14] = assay: Agonist activity at RLucII-tagged Galpha-i (unknown origin) expressed in HEK293 cells co-expressing human UT/GFP10-tagged G-gamma assessed as activation of Galpha-i at 10^-5 M by BRET assay; assay type: cell-based; conditions: dose 1.0 10^-5M
[15] = Antagonist activity at URP-activated RLucII-tagged Galpha-i (unknown origin) expressed in HEK293 cells co-expressing human UT/GFP10-tagged G-gamma by BRET assay (reference value: 7.10 +/- 0.19); assay type: cell-based
[16] = molecular target: T3, Guanine nucleotide-binding protein G(q) subunit alpha; assay: Antagonist activity at hUII-activated RLucII-tagged Galpha-q (unknown origin) expressed in HEK293 cells co-expressing human UT/GFP10-tagged G-gamma by BRET assay (reference value: 8.26 +/- 0.09); assay type: cell-based
[17] = molecular target: T1, Guanine nucleotide-binding protein G(q) subunit alpha (Homo sapiens); assay: Agonist activity at RLucII-tagged Galpha-q (unknown origin) expressed in HEK293 cells co-expressing human UT/GFP10-tagged G-gamma assessed as activation of Galpha-q at 10^-5 M by BRET assay; assay type: cell-based; conditions: dose 1.0 10^-5M
[18] = Antagonist activity at hUII-activated RLucII-tagged Galpha-i (unknown origin) expressed in HEK293 cells co-expressing human UT/GFP10-tagged G-gamma by BRET assay (reference value: 7.41 +/- 0.15); assay type: cell-based
[19] = molecular target: T1, Guanine nucleotide-binding protein G(q) subunit alpha (Homo sapiens); assay: Antagonist activity at URP-activated RLucII-tagged Galpha-q (unknown origin) expressed in HEK293 cells co-expressing human UT/GFP10-tagged G-gamma at 10^-6 M by BRET assay (reference value: 100 +/- 4 %); assay type: cell-based; conditions: filed as antagonist, dose 1.0 10^-6M
HEK293 [20] = assay: Antagonist activity at hUII-activated RLucII-tagged Galpha-q (unknown origin) expressed in HEK293 cells co-expressing human UT/GFP10-tagged G-gamma at 10^-6 M by BRET assay (reference value: 100 +/- 4 %); assay type: cell-based; conditions: filed as antagonist, dose 1.0 10^-6M
HEK293 [21] = assay: Antagonist activity at hUII-activated RLucII-tagged Galpha-i (unknown origin) expressed in HEK293 cells co-expressing human UT/GFP10-tagged G-gamma at 10^-6 M by BRET assay (reference value: 100 +/- 5 %); assay type: cell-based; conditions: filed as antagonist, dose 1.0 10^-6M
[22] = molecular target: T3, Guanine nucleotide-binding protein G(q) subunit alpha; assay: Antagonist activity at URP-activated RLucII-tagged Galpha-q (unknown origin) expressed in HEK293 cells co-expressing human UT/GFP10-tagged G-gamma by BRET assay (reference value: 7.33 +/- 0.10); assay type: cell-based

T2 sequence (P49407 whole entry): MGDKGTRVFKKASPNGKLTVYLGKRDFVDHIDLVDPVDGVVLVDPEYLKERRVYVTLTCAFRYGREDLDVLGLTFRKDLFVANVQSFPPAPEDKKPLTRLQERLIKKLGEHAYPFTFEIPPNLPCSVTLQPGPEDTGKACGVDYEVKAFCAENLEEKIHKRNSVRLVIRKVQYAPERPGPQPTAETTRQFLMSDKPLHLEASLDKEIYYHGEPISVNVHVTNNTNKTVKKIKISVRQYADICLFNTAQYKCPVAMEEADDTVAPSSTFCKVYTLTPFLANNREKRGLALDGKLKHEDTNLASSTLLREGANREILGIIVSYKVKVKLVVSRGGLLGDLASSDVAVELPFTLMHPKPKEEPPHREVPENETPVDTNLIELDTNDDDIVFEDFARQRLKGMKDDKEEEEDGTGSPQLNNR

Row | SMILES | EC50 (Aorta [2]) [nM] | EC50 [3] [nM] | EC50 (Beta-arrestin-1 [6]) [nM] | EC50 (Aorta [7]) [nM] | EC50 [8] [nM] | Emax (Beta-arrestin-1 [9]) [%] | EC50 [11] [nM] | Emax [5] [%] | EC50 [15] [nM] | EC50 [16] [nM] | Activity [17] | Emax [19] [%] | EC50 [22] [nM] | Emax (HEK293 [1]) [%] | Emax at 1 µM (Aorta [4]) [%] | Emax at 1 µM (Aorta [10]) [%] | Emax (HEK293 [12]; filed as agonist) [%] | Emax (HEK293 [13]) [%] | Activity (HEK293 [14]) | Emax (HEK293 [20]) [%] | further results
1 | COc1ccc(/C=C/C2=NN(CCCCN)C(=O)N(Cc3ccc(-c4ccccc4)cc3)c3cc(C(=O)NCc4ccccc4)ccc32)cc1 | 8.13 | – | 9.33 | 0.661 | – | 98 | 81.3 | – | 148 | 13.2 | inactive | 79 | 43.7 | 122 | 27 | 85 | – | 63 | inactive | 90 | EC50 [18]: 11.7 nM; Emax (HEK293 [21]): 80%
2 | NCCCCN1N=C(/C=C/c2ccc(O)cc2)c2ccc(C(=O)NCC(c3ccccc3)c3ccccc3)cc2N(Cc2ccc(-c3ccccc3)cc2)C1=O | 44.7 | – | 95.5 | 5.5 | – | 76 | 200 | – | 102 | 6.92 | inactive | 103 | 25.1 | 198 | 56 | 77 | – | 89 | inactive | 83 | EC50 [18]: 53.7 nM; Emax (HEK293 [21]): 95%
3 | CN(Cc1ccccc1)C(=O)c1ccc2c(c1)N(Cc1ccc(-c3ccccc3)cc1)C(=O)N(CCCCN)N=C2/C=C/c1ccc(O)cc1 | 3.31 | 589 | 117 | 0.955 | > 10000 | 82 | 178 | 37 | – | – | – | – | – | 129 | 120 | 61 | 73 | – | – | – | –

Second part, led by results:

Row | EC50 (Aorta [2]) [nM] | EC50 [3] [nM] | EC50 (Beta-arrestin-1 [6]) [nM] | EC50 (Aorta [7]) [nM] | EC50 [8] [nM] | Emax (Beta-arrestin-1 [9]) [%] | EC50 [11] [nM] | Emax [5] [%] | EC50 [15] [nM] | EC50 [16] [nM] | Activity [17] | Emax [19] [%] | EC50 [22] [nM] | SMILES | Emax (HEK293 [1]) [%] | Emax at 1 µM (Aorta [4]) [%] | Emax at 1 µM (Aorta [10]) [%] | Emax (HEK293 [12]; filed as agonist) [%] | Emax (HEK293 [13]) [%] | Activity (HEK293 [14]) | Emax (HEK293 [20]) [%] | further results
4 | 3.72 | > 10000 | 1200 | 0.741 | > 10000 | 98 | 20.9 | – | – | – | – | – | – | COc1ccc(/C=C/C2=NN(CCCCN)C(=O)N(Cc3ccc(-c4ccccc4)cc3)c3cc(C(=O)NCCCc4ccccc4)ccc32)cc1 | 103 | 77 | 252 | – | – | – | – | Emax ([5]; filed as agonist): 54%; Emax (HEK293 [12]): 18%
5 | 1.55 | 1170 | 851 | 14.5 | > 10000 | 108 | 16.2 | 26 | – | – | – | – | – | NCCCCN1N=C(/C=C/c2ccc(O)cc2)c2ccc(C(=O)NCCCc3ccccc3)cc2N(Cc2ccc(-c3ccccc3)cc2)C1=O | 104 | 161 | 123 | 75 | – | – | – | –
6 | 16.2 | > 10000 | 1780 | 6.17 | – | 198 | 288 | – | – | 6.92 | inactive | 81 | 34.7 | NCCCCN1N=C(CCc2ccc(O)cc2)c2ccc(C(=O)NCCOc3ccccc3)cc2N(Cc2ccc(-c3ccccc3)cc2)C1=O | 215 | 83 | 197 | 51 | – | – | 95 | –
